This is an account of results in publication PMC12737022, “Evaluations of Sex Differences in Dosimetry in Rats Following Perfluorohexanesulfonamide (PFHxSA) Oral Exposure” (Toxics, 2025).

The test system of one data set is human hepatocytes. Details: method as in Crizer et al. [59]. The note with it: ref Crizer et al. [59]; cited from earlier work.
The test system of a further data set is rat hepatocytes. The data set is described as follows: In vitro hepatocyte metabolic stability assay, rat hepatocytes. It counts as in vitro ADME. The note with it: scaled from hepatocyte clearance at 1 μM. Here is the method:
In vitro evaluations of PFHxSA and PFHxS hepatocyte metabolic stability were performed in rat hepatocytes, as previously described. Also, human hepatocyte clearance data were obtained from an earlier study. Native PFHxSA was obtained from Alpha Chemistry (purity > 98.4%; Holbrook, NY, USA), and PFHxS was obtained from Ark Pharma Scientific Limited (purity > 95%; Cambridge, UK). Pooled, mixed-sex cryopreserved hepatocyte suspensions were employed in a substrate depletion approach, using a final assay concentration of 1 μM. […]
Targeted, quantitative analysis of in vitro hepatocyte metabolic stability and plasma protein binding assay samples was conducted on a Waters (Milford, MA, USA) Xevo-TQS micro ultra-high-performance liquid chromatography tandem mass spectrometry system (UPLC-MS/MS), modified with a PFAS analysis kit. Samples were analyzed in negative ion mode with UniSpray ionization. Samples were analyzed in triplicate, with a reference compound included to evaluate assay performance. […]
Intrinsic hepatic clearance (Clint) and fraction unbound in plasma (fup) were calculated from the experimental point estimate data as described in Dobreniecki et al.. […] Renal clearance was calculated using the glomerular filtration rate (a species-dependent constant) and the fraction unbound in blood (fub), estimated by adjusting the experimental fup for blood/plasma partitioning. […]

For `NS(=O)(=O)C(F)(F)C(F)(F)C(F)(F)C(F)(F)C(F)(F)C(F)(F)F` [PFHxSA, Perfluorohexanesulfonamide], the entries for the “Clhep (hepatic clearance)” value with human hepatocytes and in the data set with rat hepatocytes were 0 ^2 L/h and 0.0000449 L/h, respectively.
For the molecule `O=S(=O)(O)C(F)(F)C(F)(F)C(F)(F)C(F)(F)C(F)(F)C(F)(F)F` [PFHxS, perfluorohexane sulfonic acid], the “Clhep (hepatic clearance)” value in the data set with human hepatocytes is given as 0 ^2 L/h; in the data set with rat hepatocytes, 0 L/h.
